Drawing on patent US9593149B2, “Amylin and calcitonin receptor agonist” (Novo Nordisk A/S, priority 2014, dated 2017), this text covers IC50, EC50 and solubility for three compounds.

As a reminder, the IC50 is the concentration at which inhibition is half-maximal. A word on the EC50: it is the concentration that produces a half-maximal response. The term solubility denotes the dissolved amount per volume that the medium holds.

For data set [1], the target named is T1, human amylin receptor (human calcitonin receptor + human RAMP3), BHK tk'ts 13 cells (Homo sapiens, UniProt O60896+P30988).
T1 construct: expressed in transfected cells; host or cells: BHK tk'ts 13
Briefly: Assay (Va) binding to the human amylin receptor (whole cell). Conditions: read-out: hAmylin-R binding IC50. As to the method:
The day before the assay the cells were Seeded into Poly-D-Lysin coated 384W Opaque White, BD BioCoat plates (10000 cells/well) and Incubated overnight at 37° C., 5% CO2, 95% humidity.

Data set [2] concerns the target T2, human calcitonin (a) receptor, BHK570 cells (Homo sapiens, UniProt P30988).
T2 construct: host or cells: BHK570
T2 sequence (P30988 25-474): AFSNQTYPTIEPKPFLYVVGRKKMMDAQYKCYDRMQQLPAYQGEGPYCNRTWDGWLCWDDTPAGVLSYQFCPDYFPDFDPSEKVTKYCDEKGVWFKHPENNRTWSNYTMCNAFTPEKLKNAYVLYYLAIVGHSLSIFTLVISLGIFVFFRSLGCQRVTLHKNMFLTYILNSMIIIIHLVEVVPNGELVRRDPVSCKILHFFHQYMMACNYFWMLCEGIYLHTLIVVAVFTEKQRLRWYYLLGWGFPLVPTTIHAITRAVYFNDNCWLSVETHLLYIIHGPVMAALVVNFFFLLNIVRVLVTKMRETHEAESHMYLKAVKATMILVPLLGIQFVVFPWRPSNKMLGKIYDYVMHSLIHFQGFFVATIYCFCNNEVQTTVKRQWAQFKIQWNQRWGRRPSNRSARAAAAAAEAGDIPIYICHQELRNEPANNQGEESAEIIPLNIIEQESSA
Description: Assay (II)b functional CRE-luciferase assay without albumin, human calcitonin receptor. The format is cell-based. The settings on record: Tested without HSA; read-out: hCTR funct. EC50. A digest of the protocol:
(§1)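 BHK570 cells stably expressing human calcitonin receptor with CRE-luciferase reporter, plus RAMP-3 for the amylin 3(a) line. Cells stimulated 3 hours at 37 °C in albumin-free assay medium (0.1% ovalbumin, 10 mM Hepes pH 7.4); cAMP-driven luciferase read by luminescence.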

Data set [3] concerns the target T3, human calcitonin receptor, BHK tk'ts 13 cells (Homo sapiens, UniProt P30988).
T3 construct: expressed in transfected cells; host or cells: BHK tk'ts 13
T3 sequence (P30988 25-474): T2 sequence (P30988 25-474)
Description: Assay (VIIa) binding to the human calcitonin receptor (whole cell). The settings on record: read-out: hCT-R binding IC50. As to the method:
Assay (VIIa)—Determination of Binding to the Human Calcitonin Receptor (Whole Cell Binding)
The binding assay was performed using a BHK tk'ts 13 cell line was stably transfected with the human calcitonin receptor, and a CRE-responsive luciferase reporter gene.
The day before the assay the cells were Seeded into Poly-D-Lysin coated 384W Opaque White, BD BioCoat plates (10000 cells/well) and Incubated overnight at 37° C., 5% CO2, 95% humidity. Then, the cells were washed in HBSS (4° C.), and incubated overnight at 4° C. in a binding buffer containing test compounds, 50 pM [125I]-human calcitonin, media w/o phenol red, 500 ml 0.1% ovalbumin (5 ml 10% ovalbumin) 10 mM Hepes (5 ml 1M) 1× Glutamin (5 ml 100×) 1% P/S (5 ml 100%) Complete (1 tablet/50 ml) 0.1% Pluronic F68®. The morning after, the plates were washed three times in HBSS (4° C.), and lyzed in Lysis buffer (0.1 M NaOH), 1% SDS. Scintillation cocktail (MicroScint40®) was added and the plates were shaken at 500 rpm for a short period. The plate was incubated at room temperature in the dark for 1 hour and Read on a TopCounter™ (Packard). The IC50 was calculated using (one site binding competition analysis) GraphPad Prism5 as a measure of receptor affinity. Assay (VIII)—Determination of Binding to the Rat Calcitonin Receptor

Data set [4] addresses T4, human amylin 3(a) receptor (human calcitonin receptor + RAMP-3), BHK570 cells (Homo sapiens, UniProt O60896+P30988).
T4 construct: host or cells: BHK570
Description: Assay (II)b functional CRE-luciferase assay without albumin, human amylin receptor. The format is cell-based. The settings on record: Tested without HSA; read-out: hAmylin-R funct. EC50. Put shortly: as §1

Data set [5] in a line: Assay (IV) determination of solubility. The class given is physicochemical. Here is the method:
Assay (IV)—Determination of Solubility
The mimylin peptide was dissolved in water at ˜500 nmol/ml and mixed 1:1 with a series of buffers (100 mM glycylglycine pH 3.0, 100 mM glycylglycine pH 4.0, 100 mM glycylglycine pH 5.0, 100 mM bistrispropane pH 6.0, 100 mM bistrispropane pH 6.5, 100 mM bistrispropane pH 7.0, 100 mM bistrispropane pH 7.5, 100 mM bistrispropane pH 8.0).

The target in data set [6] is T4, human amylin 3(a) receptor (human calcitonin receptor + RAMP-3), BHK570 cells. Briefly: Assay (II)a functional CRE-luciferase assay with albumin, human amylin receptor. The format is cell-based. The settings on record: Tested with HSA; read-out: hAmylin-R funct. EC50. From the text: Assay(II)a—Human Calcitonin and Amylin Receptor Assay
1. Luciferase Assay Outline
Activation of calcitonin and amylin (co-expression of calcitonin receptor and receptor activity modifying proteins (RAMP)) receptors lead to increased intracellular concentrations of cAMP. Consequently, transcription is activated by promoters containing multiple copies of the cAMP response element (CRE). It is thus possible to measure amylin activity by the use of a CRE luciferase reporter gene introduced into BHK cells also expressing calcitonin or amylin receptors.
2. Construction of Calcitonin (a)—and Amylin 3(a)—Receptor/CRE-Luc Cell Line.
A BHK570 cell line was stably transfected with the human calcitonin receptor and a CRE-responsive luciferase reporter gene. The cell line was further transfected with RAMP-3, using standard methods. This turns the calcitonin receptor into an amylin 3(a) receptor. Methotrexate, Neomycin, and Hygromycin are selection markers for luciferase, the calcitonin receptor, and RAMP-3, respectively.
To perform activity assays, BHK calcitonin (a) receptor- or amylin 3(a)-receptor/CRE-luc cells were seeded in white 96 well culture plates at a density of about 20.000 cells/well. […] After incubation overnight at 37° C. and 5% CO2, the growth medium was replaced by 50 μl/well assay medium (DMEM (without phenol red), Glutamax™, 10% FBS, and 10 mM Hepes, pH 7.4). Further, 50 μl/well of standard or sample in assay buffer were added.
After 3 hours incubation at 37° C. and 5% CO2, the assay medium with standard or sample were removed and replaced by 100 μl/well PBS. Further, 100 μl/well LucLite™ was added. The plates were sealed and incubated at room temperature for 30 minutes. Finally, luminescence was tested on a TopCounter (Packard) in SPC (single photon counting) mode.

Data set [7] addresses T5, human calcitonin receptor (Homo sapiens, UniProt P30988).
T5 construct: expressed in transfected cells; host or cells: BHK tk'ts 13
T5 sequence (P30988 25-474): T2 sequence (P30988 25-474)
Description: Assay (VII) binding to the human calcitonin receptor (membrane, SPA). The settings on record: membranes, 125I-Calcitonin; read-out: hCT-R binding IC50. As to the method: Assay (VII)—Determination of Binding to the Human Calcitonin Receptor (Membrane)
The binding assay was performed using scintillation proximity assay (SPA) beads (RPNQ0001) from PerkinElmer® and cell membranes prepared from a BHK tk'ts 13 cell line was stably transfected with the human calcitonin receptor and a CRE-responsive luciferase reporter gene. Membranes were prepared in the following way; the cells were rinsed with PBS and incubated with Versene for approximately 5 min before harvesting. The cells were flushed with PBS and the cell-suspension was centrifuged for 5 min at 1000 rpm. Cells were homogenized in a buffer containing 20 mM Na-HEPES and 10 mM EDTA (pH 7.4) and centrifuged at 20.000 rpm for 15 min. The resulting pellet was resuspended, homogenized and centrifuged (20.000 rpm, 15 min) in a buffer containing 20 mM Na-HEPES and 0.1 mM EDTA (pH 7.4, buffer 2). The resulting pellet was resuspended in buffer 2 and protein concentration was tested (BCA protein Assay, Pierce). The homogenate was kept cold during the whole procedure. The membranes were kept at −80° C. until use. Assay was performed in a 384 well Optiplate (PerkinElmer®) in a total volume of 40 ul. Membranes were mixed with SPA beads. Final concentration of membranes 35 ng/μL final and Final concentration of SPA beads was 0.05 mg/well. Test-compounds were dissolved in DMSO and further diluted in assay buffer (50 mM Hepes, pH 7.4, 1 mM CaCl2, 5 mM MgCl2, 0.1% OA and 0.02% Tween20). Radioligand ^125I-Calcitonin was dissolved in assay buffer and added to the Optiplate at a final concentration of 75 pM/well (approx. 30.000 cpm/10 ul). The final mixture was incubated for 120 min with shaking at 400 rpm at 25° C. prior to centrifugation (1500 rpm, 10 min). Samples were analyzed on TopCounter™ (Packard). The IC50 was calculated using (one site binding competition analysis) GraphPad Prism5 as a measure of receptor affinity.

Peptide text beside a SMILES is read from it.

T4 sequence (O60896 24-148, one chain of several): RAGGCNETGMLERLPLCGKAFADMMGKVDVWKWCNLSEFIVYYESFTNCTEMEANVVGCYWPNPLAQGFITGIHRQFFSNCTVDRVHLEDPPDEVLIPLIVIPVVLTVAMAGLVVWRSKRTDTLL
T1 sequence (O60896 24-148, one chain of several): as above

Take `CC(C)C[C@H](NC(=O)[C@H](C)NC(=O)[C@H](C)NC(=O)[C@@H](NC(=O)[C@H](CO)NC(=O)[C@H](CC(C)C)NC(=O)[C@H](CCC(=O)O)NC(=O)[C@H](CO)NC(=O)[C@H](C)NC(=O)[C@@H](N)CCC(=O)O)[C@@H](C)O)C(=O)NCC(=O)N[C@@H](CCCNC(=N)N)C(=O)N[C@@H](CC(C)C)C(=O)N[C@@H](CO)C(=O)N[C@@H](C)C(=O)N[C@@H](CCC(=O)O)C(=O)N[C@@H](CC(C)C)C(=O)N[C@@H](Cc1c[nH]cn1)C(=O)N[C@@H](CCC(=O)O)C(=O)N[C@@H](CC(C)C)C(=O)N[C@@H](C)C(=O)N[C@H](C(=O)N[C@@H](CC(C)C)C(=O)N1CCC[C@H]1C(=O)N[C@@H](CCCNC(=N)N)C(=O)N[C@H](C(=O)N[C@@H](CCC(=O)O)C(=O)N[C@H](C(=O)NCC(=O)N[C@@H](CO)C(=O)NCC(=O)N[C@@H](CO)C(=O)N1CCC[C@H]1C(N)=O)[C@@H](C)O)[C@@H](C)O)[C@@H](C)O` [22bb, H—EASELSTAALGRLSAELHELATLPRTETGSGSP—NH2] (H-EASELSTAALGRLSAELHELATLPRTETGSGSP-NH2): the figures for the IC50 in data set [1] and in data set [3] were 0.469 nM and 0.481 nM, respectively. Besides, the concentration giving a half-maximal response (EC50) in data set [2] was determined as 0.002 nM.
Consider `CC(C)C[C@H](NC(=O)[C@H](C)NC(=O)[C@H](C)NC(=O)[C@@H](NC(=O)[C@H](CO)NC(=O)[C@H](CC(C)C)NC(=O)[C@H](CCC(=O)O)NC(=O)[C@H](CO)NC(=O)[C@H](C)NC(=O)[C@@H](N)CCC(=O)O)[C@@H](C)O)C(=O)NCC(=O)N[C@@H](CCCNC(=N)N)C(=O)N[C@@H](CC(C)C)C(=O)N[C@@H](CO)C(=O)N[C@@H](C)C(=O)N[C@@H](CCC(=O)O)C(=O)N[C@@H](CC(C)C)C(=O)N[C@@H](Cc1c[nH]cn1)C(=O)N[C@@H](CCC(=O)O)C(=O)N[C@@H](CC(C)C)C(=O)N[C@@H](C)C(=O)N[C@H](C(=O)N[C@@H](CC(C)C)C(=O)N1CCC[C@H]1C(=O)N[C@@H](CCCNC(=N)N)C(=O)N[C@H](C(=O)N[C@@H](CCC(=O)O)C(=O)N[C@H](C(=O)NCC(=O)N1CCC[C@H]1C(=O)N[C@@H](CCC(=O)O)C(=O)N[C@@H](CO)C(=O)N1CCC[C@H]1C(N)=O)[C@@H](C)O)[C@@H](C)O)[C@@H](C)O` [Ex. #1, mimylin] (H-EASELSTAALGRLSAELHELATLPRTETGPESP-NH2), for which the IC50 in data set [1] was determined as 0.511 nM; in data set [3], 0.431 nM. The concentration giving a half-maximal response (EC50) in data set [4] is 0.003 nM.
For the compound `CC(=O)N[C@@H](C)C(=O)N[C@@H](CO)C(=O)N[C@@H](CCC(=O)O)C(=O)N[C@@H](CC(C)C)C(=O)N[C@@H](CO)C(=O)N[C@H](C(=O)N[C@@H](C)C(=O)N[C@@H](C)C(=O)N[C@@H](CC(C)C)C(=O)NCC(=O)N[C@@H](CCCNC(=N)N)C(=O)N[C@@H](CC(C)C)C(=O)N[C@@H](CO)C(=O)N[C@@H](C)C(=O)N[C@@H](CCC(=O)O)C(=O)N[C@@H](CC(C)C)C(=O)N[C@@H](Cc1c[nH]cn1)C(=O)N[C@@H](CCC(=O)O)C(=O)N[C@@H](CC(C)C)C(=O)N[C@@H](C)C(=O)N[C@H](C(=O)N[C@@H](CC(C)C)C(=O)N1CCC[C@H]1C(=O)N[C@@H](CCCNC(=N)N)C(=O)N[C@H](C(=O)N[C@@H](CCCCNC(=O)CC[C@H](NC(=O)CCCCCCCCCCCCCCCCCCC(=O)O)C(=O)O)C(=O)N[C@H](C(=O)NCC(=O)N[C@@H](CO)C(=O)NCC(=O)N[C@@H](CO)C(=O)N1CCC[C@H]1C(N)=O)[C@@H](C)O)[C@@H](C)O)[C@@H](C)O)[C@@H](C)O` [compound 71, [N-terminal(acetyl), des1, 27K(C20 diacid-gGlu), 30S, 31G]mimylin], the solubility at 18 h is at least 200 µM in data set [5] (bistrispropane buffer, pH 6.5); at least 200 µM in data set [5] (bistrispropane buffer, pH 7.5); at least 200 µM in data set [5] (bistrispropane buffer, pH 6.0); at least 200 µM in data set [5] (bistrispropane buffer, pH 7.0); at least 200 µM in data set [5] (bistrispropane buffer, pH 8.0); at least 200 µM in data set [5] (glycylglycine buffer, pH 3.0). Further, the solubility at 18 h in data set [5] (glycylglycine buffer, pH 4.0) was at least 200 µM; in data set [5] (glycylglycine buffer, pH 5.0) it was at least 200 µM. Moreover, the concentration for a half-maximal effect (EC50) in data set [6] came to 0.164 nM; in data set [2], 0.03 nM; in data set [4], 0.053 nM. For the same compound, the IC50 in data set [7] is 0.07 nM.
